Laboratory results: ChEMBL document CHEMBL5107956, “Natural products from mangrove sediments-derived microbes: Structural diversity, bioactivities, biosynthesis, and total synthesis” (Eur J Med Chem, 2022)
In brackets after ≈: the same amount, converted by molar mass.

Experiments:
Influenza A virus = assay: Antiviral activity against Influenza A virus H1N1; assay type: functional, organism-based
Candida albicans = assay: Antifungal activity against Candida albicans ATCC 10231 assessed as fungal growth inhibition by agar dilution method; assay type: functional
Escherichia coli = assay: Antibacterial activity against Escherichia coli S002 assessed as bacterial cell growth inhibition by agar dilution method; assay type: functional
Bacillus subtilis = assay: Antibacterial activity against Bacillus subtilis S028 assessed as bacterial cell growth inhibition by agar dilution method; assay type: functional
Staphylococcus aureus [1] = assay: Antibacterial activity against Staphylococcus aureus S014 assessed as bacterial cell growth inhibition by agar dilution method; assay type: functional
MCF7 = assay: Cytotoxicity against human MCF7 cells assessed as cell growth inhibition; assay type: functional, cell-based
HeLa = assay: Cytotoxicity against human HeLa cells assessed as cell growth inhibition; assay type: functional, cell-based
HCT-116 = assay: Cytotoxicity against human HCT-116 cells assessed as cell growth inhibition by MTT assay; assay type: functional, cell-based
Staphylococcus aureus [2] = assay: Antibacterial activity against methicillin-resistant Staphylococcus aureus assessed as bacterial cell growth inhibition by agar dilution method; assay type: functional

O=C1NC(=O)[C@H](Cc2c[nH]c3ccccc23)n2c1nc1ccccc1c2=O
IC50 (Influenza A virus): 82 µM

CC(=O)C[C@H](c1nc2ccccc2c(=O)n1[C@@H]1C[C@]2(OC1=O)c1ccccc1N1C(=O)C(C)(C)N[C@H]12)C(C)C
IC50 (Influenza A virus): 82 µM

C/N=C(/N)NCCC/C=C/CCC[C@H](C)[C@@H]1OC(=O)/C(C)=C/C=C/[C@H](C)[C@@H](O)C[C@H](O)[C@@H](C)[C@H](O)CC[C@H](C)[C@@H](O)C[C@@]2(O)O[C@@H](C[C@@H](OC(=O)CCCCCCCC(C)C)C[C@H](O)C[C@@H](O)C[C@H](O)/C(C)=C/C=C/[C@H]1C)C[C@@H](O)[C@@H]2O
MIC (Candida albicans): 1.65 µg/mL (≈ 1.42 µM) | MIC (Escherichia coli): 3.13 µg/mL (≈ 2.69 µM) | MIC (Bacillus subtilis): 0.2 µg/mL (≈ 0.172 µM) | MIC (Staphylococcus aureus [1]): 0.39 µg/mL (≈ 0.335 µM)

CC[C@@H]1[C@@H](C)O[C@@](O)([C@@H](C)[C@H](O)[C@H](C)[C@H]2OC(=O)/C=C/C=C/[C@H](C)[C@@H]([C@@H](C)[C@@H](O)[C@H](C)[C@@]3(O)C[C@@H](O[C@H]4C[C@H](O)[C@H](O)[C@H](C)O4)[C@H](CC)[C@@H](C)O3)OC(=O)/C(C)=C/C=C/[C@@H]2C)C[C@H]1O[C@H]1C[C@H](O)[C@H](O)[C@H](C)O1
IC50 (MCF7): 190 nM | IC50 (HeLa): 190 nM

C/N=C(\NC)NCCC/C=C/CCC[C@H](C)[C@@H]1OC(=O)/C(C)=C/C=C/[C@H](C)[C@@H](O)C[C@H](O)[C@@H](C)[C@H](O)CC[C@H](C)[C@@H](O)C[C@@]2(O)O[C@@H](C[C@@H](O)C[C@H](OC(=O)CC(=O)O)C[C@@H](O)C[C@H](O)/C(C)=C/C=C/[C@H]1C)C[C@@H](O)[C@@H]2O
MIC (Candida albicans): 1.65 µg/mL (≈ 1.5 µM) | MIC (Escherichia coli): 3.13 µg/mL (≈ 2.85 µM) | MIC (Bacillus subtilis): 0.2 µg/mL (≈ 0.182 µM) | MIC (Staphylococcus aureus [1]): 0.39 µg/mL (≈ 0.356 µM)

CC[C@@H]1[C@@H](C)O[C@@](O)([C@@H](C)[C@H](O)[C@H](C)[C@H]2OC(=O)/C=C/C=C/[C@H](C)[C@@H]([C@@H](C)[C@@H](O)[C@H](C)[C@@]3(O)C[C@@H](O[C@H]4C[C@H](O)[C@H](O)[C@H](C)O4)[C@H](CC)[C@@H](C)O3)OC(=O)/C=C/C=C/[C@@H]2C)C[C@H]1O[C@H]1C[C@H](O)[C@H](O)[C@H](C)O1
IC50 (MCF7): 190 nM | IC50 (HeLa): 190 nM

CCCC(CC)COC(=O)CC(=O)OC1CC(O)CC2CC(O)C(O)C(O)(CC(O)C(C)CCC(O)C(C)C(O)CC(O)C(C)/C=C/C=C(\C)C(=O)OC(C(C)CCC/C=C/CCCN/C(N)=N\C)C(C)/C=C/C=C(\C)C(O)CC(O)C1)O2 (stereo not given)
MIC (Candida albicans): 1.65 µg/mL (≈ 1.4 µM) | MIC (Escherichia coli): 3.13 µg/mL (≈ 2.65 µM) | MIC (Bacillus subtilis): 0.2 µg/mL (≈ 0.169 µM) | MIC (Staphylococcus aureus [1]): 0.39 µg/mL (≈ 0.33 µM)

C/C1=C\C=C\C(C)C(O)CC(O)C(C)C(O)CCC(C)C(O)CC2(O)OC(CC(OC(=O)CC(=O)O)CC(O)CC(O)CC(O)/C(C)=C/C=C/C(C)C(C(C)CCC/C=C/CCCNC(=N)N)OC1=O)CC(O)C2O (stereo not given)
MIC (Candida albicans): 1.65 µg/mL (≈ 1.54 µM) | IC50 (HCT-116): 1.81 µg/mL | MBC (Staphylococcus aureus [2]): 8 µg/mL (≈ 7.49 µM) | MIC (Staphylococcus aureus [2]): 4 µg/mL (≈ 3.74 µM)

C/N=C(\N)NCCC/C=C/CCCC(C)C1OC(=O)/C(C)=C/C=C/C(C)C(O)CC(O)C(C)C(O)CCC(C)C(O)CC2(O)OC(CC(OC(=O)CC(=O)O)CC(O)CC(O)CC(O)/C(C)=C/C=C/C1C)CC(O)C2O (stereo not given)
MIC (Candida albicans): 1.65 µg/mL (≈ 1.52 µM) | IC50 (HCT-116): 1.81 µg/mL | MBC (Staphylococcus aureus [2]): 8 µg/mL (≈ 7.39 µM) | MIC (Staphylococcus aureus [2]): 4 µg/mL (≈ 3.7 µM)

C/N=C(/NC)NCCC/C=C/CCC[C@H](C)[C@@H]1OC(=O)/C(C)=C/C=C/[C@H](C)[C@@H](O)C[C@H](O)[C@@H](C)[C@H](O)CC[C@H](C)[C@@H](O)C[C@@]2(O)O[C@@H](C[C@@H](OC(=O)CCCCCCCCC(C)C)C[C@H](O)C[C@@H](O)C[C@H](O)/C(C)=C/C=C/[C@H]1C)C[C@@H](O)[C@@H]2O
MIC (Candida albicans): 1.65 µg/mL (≈ 1.38 µM) | MIC (Escherichia coli): 3.13 µg/mL (≈ 2.62 µM) | MIC (Bacillus subtilis): 0.2 µg/mL (≈ 0.168 µM) | MIC (Staphylococcus aureus [1]): 0.39 µg/mL (≈ 0.327 µM)

COC(=O)Nc1ccc(C)c(NC(=O)N(C)[C@@H]2O[C@H]3C[C@@](C)([C@@H]2OC)n2c4ccccc4c4c5c(c6c7ccccc7n3c6c42)C(=O)NC5)c1
IC50 (HCT-116): 370 nM

C/N=C(\NC)NCCC/C=C/CCCC(C)C1OC(=O)/C(C)=C/C=C/C(C)C(O)CC(O)C(C)C(O)CCC(C)C(O)CC2(O)OC(CC(OC(=O)CC(=O)O)CC(O)CC(O)CC(O)/C(C)=C/C=C/C1C)CC(O)C2O (stereo not given)
MIC (Candida albicans): 1.65 µg/mL (≈ 1.5 µM) | IC50 (HCT-116): 1.81 µg/mL | MBC (Staphylococcus aureus [2]): 8 µg/mL (≈ 7.3 µM) | MIC (Staphylococcus aureus [2]): 4 µg/mL (≈ 3.65 µM)

CC[C@@H]1[C@@H](C)O[C@@](OC)([C@@H](C)[C@H](O)[C@H](C)[C@H]2OC(=O)/C=C/C=C/[C@H](C)[C@@H]([C@@H](C)[C@@H](O)[C@H](C)[C@@]3(OC)C[C@@H](O[C@H]4C[C@H](O)[C@H](O)[C@H](C)O4)[C@H](CC)[C@@H](C)O3)OC(=O)/C=C/C=C/[C@@H]2C)C[C@H]1O[C@H]1C[C@H](O)[C@H](O)[C@H](C)O1
IC50 (MCF7): 190 nM | IC50 (HeLa): 190 nM

CCCC(CC)COC(=O)CC(=O)OC1CC(O)CC(O)CC(O)/C(C)=C/C=C/C(C)C(C(C)CCC/C=C/CCCN/C(N)=N/C)OC(=O)/C(C)=C/C=C/C(C)C(O)CC(O)C(C)C(O)CCC(C)C(O)CC2(O)OC(C1)CC(O)C2O (stereo not given)
MIC (Candida albicans): 1.65 µg/mL (≈ 1.4 µM)

CCCC(CC)COC(=O)CC(=O)OC1CC(O)CC(O)CC(O)/C(C)=C/C=C/C(C)C(C(C)CCC/C=C/CCCN/C(=N/C)NC)OC(=O)/C(C)=C/C=C/C(C)C(O)CC(O)C(C)C(O)CCC(C)C(O)CC2(O)OC(C1)CC(O)C2O (stereo not given)
MIC (Candida albicans): 1.65 µg/mL (≈ 1.38 µM)

CS[C@H]1NC(=O)[C@@](Cc2ccc(CCC=C(C)C)cc2)(SC)N(C)C1=O
IC50 (HeLa): 4200 nM

CC[C@@H]1[C@@H](C)O[C@@](O)([C@@H](C)[C@H](O)[C@H](C)[C@H]2OC(=O)/C=C/C=C/[C@H](C)[C@@H]([C@@H](C)[C@@H](O)[C@@H](C)[C@@]3(O)C[C@@H](O[C@H]4C[C@H](O)[C@H](O)[C@H](C)O4)[C@H](CC)[C@@H](C)O3)OC(=O)/C=C/C=C/[C@@H]2C)C[C@H]1OC
IC50 (MCF7): 190 nM | IC50 (HeLa): 190 nM

CC(=O)C[C@H](c1nc2ccccc2c(=O)n1[C@@H]1C[C@]2(OC1=O)c1ccccc1N1C(=O)C(C)(C)N(O)[C@H]12)C(C)C
IC50 (Influenza A virus): 82 µM

CN[C@@H]1O[C@H]2C[C@@](C)([C@@H]1OC)n1c3ccccc3c3c4c(c5c6ccccc6n2c5c31)C(=O)NC4
IC50 (HCT-116): 40 nM

C/N=C(/N)NCCC/C=C/CCC[C@H](C)[C@@H]1OC(=O)/C(C)=C/C=C/[C@H](C)[C@@H](O)C[C@H](O)[C@@H](C)[C@H](O)CC[C@H](C)[C@@H](O)C[C@@]2(O)O[C@@H](C[C@@H](OC(=O)CCCCC(C)C)C[C@H](O)C[C@@H](O)C[C@H](O)/C(C)=C/C=C/[C@H]1C)C[C@@H](O)[C@@H]2O
MIC (Candida albicans): 1.65 µg/mL (≈ 1.47 µM) | MIC (Escherichia coli): 3.13 µg/mL (≈ 2.79 µM) | MIC (Bacillus subtilis): 0.2 µg/mL (≈ 0.178 µM) | MIC (Staphylococcus aureus [1]): 0.39 µg/mL (≈ 0.347 µM)

CC(=O)C[C@H](c1nc2ccccc2c(=O)n1[C@@H]1C[C@]2(OC1=O)c1ccccc1N1C(=O)[C@H](C)N[C@H]12)C(C)C
IC50 (Influenza A virus): 82 µM

CC[C@@H]1[C@@H](C)O[C@@](O)([C@@H](C)[C@H](O)[C@H](C)[C@H]2OC(=O)/C=C/C=C/[C@H](C)[C@@H]([C@@H](C)[C@@H](O)[C@H](C)[C@@]3(O)C[C@@H](O[C@H]4C[C@H](O)[C@H](O)[C@H](C)O4)[C@H](C)[C@@H](C)O3)OC(=O)/C=C/C=C/[C@@H]2C)C[C@H]1O[C@H]1C[C@H](O)[C@H](O)[C@H](C)O1
IC50 (MCF7): 190 nM | IC50 (HeLa): 190 nM

C/N=C(\NC)NCCC/C=C/CCC[C@H](C)[C@@H]1OC(=O)/C(C)=C/C=C/[C@H](C)[C@@H](O)C[C@H](O)[C@@H](C)[C@H](O)CC[C@H](C)[C@@H](O)C[C@@]2(O)O[C@@H](C[C@@H](OC(=O)C(N)C(C)C)C[C@H](O)C[C@@H](O)C[C@H](O)/C(C)=C/C=C/[C@H]1C)C[C@@H](O)[C@@H]2O (stereo not given in full)
MIC (Candida albicans): 1.65 µg/mL (≈ 1.49 µM) | MIC (Escherichia coli): 3.13 µg/mL (≈ 2.82 µM) | MIC (Bacillus subtilis): 0.2 µg/mL (≈ 0.18 µM) | MIC (Staphylococcus aureus [1]): 0.39 µg/mL (≈ 0.352 µM)

CC(C)=C1NC(=O)[C@@H](C[C@]2(O)c3ccccc3N3C(=O)[C@H](C)N[C@H]32)n2c1nc1ccccc1c2=O
IC50 (Influenza A virus): 82 µM

O=C1NC2c3nc4ccccc4c(=O)n3[C@H]1C[C@@]21c2ccccc2N2C(=O)[C@@H]3CCCN3[C@H]21
IC50 (Influenza A virus): 82 µM

CC[C@@H]1[C@@H](C)O[C@@](OC)([C@@H](C)[C@H](O)[C@H](C)[C@H]2OC(=O)/C=C/C=C/[C@H](C)[C@@H]([C@@H](C)[C@@H](O)[C@H](C)[C@@]3(OC)C[C@@H](O[C@H]4C[C@H](O)[C@H](O)[C@H](C)O4)[C@H](CC)[C@@H](C)O3)OC(=O)/C(C)=C/C=C/[C@@H]2C)C[C@H]1O[C@H]1C[C@H](O)[C@H](O)[C@H](C)O1
IC50 (MCF7): 190 nM | IC50 (HeLa): 190 nM

C/C1=C\C=C\[C@H](C)[C@@H](O)C[C@H](O)[C@@H](C)[C@H](O)CC[C@H](C)[C@@H](O)C[C@@]2(O)O[C@@H](C[C@@H](OC(=O)CCCCC(C)C)C[C@H](O)C[C@@H](O)C[C@H](O)/C(C)=C/C=C/[C@@H](C)[C@H]([C@@H](C)CCC/C=C/CCCNC(=N)N)OC1=O)C[C@@H](O)[C@@H]2O
MIC (Candida albicans): 1.65 µg/mL (≈ 1.49 µM) | MIC (Escherichia coli): 3.13 µg/mL (≈ 2.82 µM) | MIC (Bacillus subtilis): 0.2 µg/mL (≈ 0.18 µM) | MIC (Staphylococcus aureus [1]): 0.39 µg/mL (≈ 0.352 µM)

CC[C@@H]1[C@@H](C)O[C@@](OC)([C@@H](C)[C@H](O)[C@H](C)[C@H]2OC(=O)/C=C/C=C/[C@H](C)[C@@H]([C@@H](C)[C@@H](O)[C@H](C)[C@@]3(O)C[C@@H](O[C@H]4C[C@H](O)[C@H](O)[C@H](C)O4)[C@H](CC)[C@@H](C)O3)OC(=O)/C=C/C=C/[C@@H]2C)C[C@H]1O[C@H]1C[C@H](O)[C@H](O)[C@H](C)O1
IC50 (MCF7): 190 nM | IC50 (HeLa): 190 nM
